Laboratory results published in article PMC7076710, “Synthesis, Identification, and Structure–Activity Relationship Analysis of GATA4 and NKX2-5 Protein–Protein Interaction Modulators” (Journal of Medicinal Chemistry, 2019).
Blank lines part the entries; values can stand above or below the molecule they belong to.

Target: T1, GATA4–NKX2-5 transcriptional synergy (Mus musculus, UniProt P42582+Q08369)
T1 construct: expressed in transfected cells; host or cells: COS-1
Experiment: GATA4–NKX2-5 transcriptional synergy luciferase reporter assay (3xNKE reporter, COS-1 cells)
Format: cell-based

[1] = COS-1, compound at 3 µM, luciferase reporter activity, % of control
[2] = COS-1, compound at 10 µM, luciferase reporter activity, % of control
[3] = COS-1, compound 3 µM, luciferase reporter activity relative to control
[4] = COS-1, compound 10 µM, luciferase reporter activity relative to control
[5] = 3 µM compound, GATA4–NKX2-5 transcriptional synergy reporter, COS-1 cells
[6] = 10 µM compound, GATA4–NKX2-5 transcriptional synergy reporter, COS-1 cells
[7] = COS-1, compound 3 µM, luciferase reporter activity, spread in separate STDEV column
[8] = COS-1, compound 10 µM, luciferase reporter activity, spread in separate STDEV column
[9] = COS-1, GATA4-NKX2-5 transcriptional synergy luciferase reporter assay, compound at 3 µM
[10] = COS-1, GATA4-NKX2-5 transcriptional synergy luciferase reporter assay, compound at 10 µM

T1 sequence (Q08369 whole entry): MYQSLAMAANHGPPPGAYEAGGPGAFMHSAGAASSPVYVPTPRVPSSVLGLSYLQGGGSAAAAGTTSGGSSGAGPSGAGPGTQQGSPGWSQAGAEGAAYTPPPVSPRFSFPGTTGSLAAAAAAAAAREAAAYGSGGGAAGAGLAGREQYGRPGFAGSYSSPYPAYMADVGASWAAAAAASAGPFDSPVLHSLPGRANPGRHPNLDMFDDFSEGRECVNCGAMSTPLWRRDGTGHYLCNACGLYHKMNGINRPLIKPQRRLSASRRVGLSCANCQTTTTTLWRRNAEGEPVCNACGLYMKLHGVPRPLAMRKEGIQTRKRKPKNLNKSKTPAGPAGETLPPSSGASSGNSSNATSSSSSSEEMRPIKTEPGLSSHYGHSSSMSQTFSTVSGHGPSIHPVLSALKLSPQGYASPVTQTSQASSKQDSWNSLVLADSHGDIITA
T1 sequence (P42582 whole entry): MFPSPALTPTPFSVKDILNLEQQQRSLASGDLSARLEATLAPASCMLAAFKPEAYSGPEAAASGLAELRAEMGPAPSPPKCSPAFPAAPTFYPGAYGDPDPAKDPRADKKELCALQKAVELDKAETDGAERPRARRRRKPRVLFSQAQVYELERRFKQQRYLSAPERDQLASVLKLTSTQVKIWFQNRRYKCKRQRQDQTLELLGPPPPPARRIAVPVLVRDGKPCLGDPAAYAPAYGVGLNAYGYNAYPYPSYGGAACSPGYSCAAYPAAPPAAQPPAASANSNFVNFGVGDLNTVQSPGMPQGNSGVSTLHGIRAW

Compound: COc1ccc(NC(=O)n2nc(N)cc2-c2ccc(OC)cc2)cc1 [SI99]
activity at 3 µM [1]: 79.8%
activity at 10 µM [2]: 108%

Compound: Cc1cc(C(=O)Nc2ccc3oc(-c4ccccc4)cc(=O)c3c2)c(-c2ccccc2)o1 [SI101]
activity at 3 µM [5]: 90.8%
activity at 10 µM [6]: 78%

Compound: O=C(Nc1ccc2oc(-c3ccccc3)cc(=O)c2c1)c1snnc1-c1ccccc1 [SI104]
activity at 3 µM [5]: 103%
activity at 10 µM [6]: 94.9%

Compound: CCN(CC)c1ccc(C(=O)Nc2c(C(N)=O)oc3ccccc23)cc1 [SI106]
activity at 3 µM [1]: 94.1%
activity at 10 µM [2]: 95.8%

Compound: CC(=O)c1ccc(OCc2cc(-c3ccc(CC(C)C)cc3)on2)cc1 [SI107]
activity at 3 µM [3]: 113%
activity at 10 µM [4]: 104%

Compound: Cc1onc(-c2ccccc2)c1NCc1ccc(N(C)C)cc1 [SI109]
activity at 3 µM [1]: 87.1%
activity at 10 µM [2]: 89.9%

Compound: COC(=O)c1ccc(N(C)C(=O)c2c(-c3ccccc3)noc2C)cc1 [SI110]
activity at 3 µM [5]: 100%
activity at 10 µM [6]: 117%

Compound: COC(=O)c1c(-c2ccccc2)nnn1CCc1ccccc1 [SI111]
activity at 3 µM [3]: 103%
activity at 10 µM [4]: 106%

Compound: COc1ccc(-c2cc(N)nn2C(=O)c2ccc(C(C)(C)C)cc2)cc1 [SI112]
activity at 3 µM [1]: 104%
activity at 10 µM [2]: 71.9%

Compound: CCN(CC)C(=O)c1cc(-c2cccs2)on1 [SI114]
activity at 3 µM [7]: 124%
activity at 10 µM [8]: 115%

Compound: Cc1onc(-c2ccc(Br)s2)c1C(=O)Nc1ccc(C(C)C)cc1 [SI116]
activity at 3 µM [7]: 99.4%
activity at 10 µM [8]: 97.2%

Compound: Cc1onc(-c2ccc(Br)s2)c1C(=O)NC1CC1 [SI117]
activity at 3 µM [7]: 90%
activity at 10 µM [8]: 105%

Compound: CCOC(=O)c1cc(NC(=O)c2cc(-c3ccccc3)no2)c[nH]1 [SI126]
activity at 3 µM [9]: 100%
activity at 10 µM [10]: 101%

Compound: O=C(Nc1cc(-c2cccs2)n[nH]1)c1ccccc1 [SI128]
activity at 3 µM [9]: 110%
activity at 10 µM [10]: 69.3%

Compound: O=C(Nc1cccc(N2CCCC2=O)c1)c1cc(-c2ccccc2)[nH]n1 [SI130]
activity at 3 µM [9]: 102%
activity at 10 µM [10]: 106%

Next, values leading:

activity at 3 µM [3]: 112%
activity at 10 µM [4]: 117%
Compound: O=C(Nc1ccc2oc(-c3ccccc3)cc(=O)c2c1)c1cnsc1 [SI100]

activity at 3 µM [5]: 103%
activity at 10 µM [6]: 91.3%
Compound: O=C(Nc1ccc2oc(-c3ccccc3)cc(=O)c2c1)c1ncoc1-c1ccccc1 [SI102]

activity at 3 µM [5]: 96.2%
activity at 10 µM [6]: 110%
Compound: CSc1nsc(SC)c1C(=O)Nc1ccc2oc(-c3ccccc3)cc(=O)c2c1 [SI103]

activity at 3 µM [3]: 70.3%
activity at 10 µM [4]: 44.1%
Compound: Cc1noc(-c2ccccc2)c1C(=O)Nc1ccc2oc(-c3ccccc3)cc(=O)c2c1 [SI105]

activity at 3 µM [7]: 101%
activity at 10 µM [8]: 99.2%
Compound: N#Cc1ccc(NC(=O)c2cc(-c3ccco3)on2)cc1 [SI113]

activity at 3 µM [7]: 92%
activity at 10 µM [8]: 91.9%
Compound: COc1ccc(NC(=O)c2c(-c3ccc(Br)s3)noc2C)cc1Cl [SI115]

activity at 3 µM [7]: 96.6%
activity at 10 µM [8]: 102%
Compound: N#Cc1ccc(NC(=O)c2cc(-c3ccncc3)[nH]n2)cc1 [SI118]

activity at 3 µM [9]: 91.2%
activity at 10 µM [10]: 103%
Compound: CC(C)c1ccc(NC(=O)c2n[nH]c3c2COc2ccccc2-3)cc1 [SI119]

activity at 3 µM [9]: 91.7%
activity at 10 µM [10]: 90.7%
Compound: CCN(CC)c1ccc(NC(=O)c2cc(-c3ccco3)[nH]n2)cc1 [SI120]

activity at 3 µM [9]: 101%
activity at 10 µM [10]: 90.6%
Compound: O=C1COc2ccc(NC(=O)c3cc(-c4ccccc4)[nH]n3)cc2N1 [SI121]

activity at 3 µM [9]: 91.8%
activity at 10 µM [10]: 102%
Compound: O=C(Nc1ccc2c(c1)OC(F)(F)O2)c1cc(-c2ccco2)on1 [SI122]

activity at 3 µM [9]: 108%
activity at 10 µM [10]: 102%
Compound: O=C(Nc1ccc(F)c(Cl)c1)c1cnoc1-c1ccco1 [SI124]

activity at 3 µM [9]: 106%
activity at 10 µM [10]: 91.7%
Compound: CCC1(C)Oc2ccc(NC(=O)c3cnoc3-c3ccc(C)o3)cc2O1 (stereo not drawn) [SI125]

activity at 3 µM [9]: 96.7%
activity at 10 µM [10]: 82.9%
Compound: O=C(Nc1ccc(N2CCCS2(=O)=O)cc1)c1c[nH]cc1-c1ccc(Cl)s1 [SI127]

activity at 3 µM [9]: 94.3%
activity at 10 µM [10]: 115%
Compound: CN(C)c1c(F)cc(NC(=O)c2cc(-c3ccco3)on2)cc1F [SI129]
